What was measured:
[1] = target: GCN2 kinase (Homo sapiens (Human), UniProt Q9P2K8); test: GCN2 Enzyme Inhibition Assay (Transcreener ADP2 fluorescence polarization); format: biochemical; settings: 280 μM ATP, 200 μM (RS)7 peptide, 4 nM GCN2, 25° C.; for Ki: Ki(app)
Outline: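 At 25 °C, GCN2 kinase (typical final concentration 4 nM) and (RS)7 peptide in Tris-HCl pH 7.5 buffer with MgCl2, NaCl and DTT were preincubated with compound for 10 min, then ATP was added for a 1 h reaction. ADP was read by FP with antibody/Alexa633 tracer. Non-linear tight-binding analysis gave IC50 and apparent Ki.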

[2] = target: intracellular GCN2 (phosphorylation of the GCN2 substrate eIF2α) (Homo sapiens (Human), UniProt Q9P2K8); test: GCN2 Cellular Inhibition Assay (AlphaScreen SureFire P-eIF2α Ser51, borrelidin-treated U2OS cells); format: cell-based; settings: 10 μM borrelidin, 1 h, phosphorylated eIF2α Ser51, read-out: GCN2 Biomarker (IC50)
Sequence of intracellular GCN2 (phosphorylation of the GCN2 substrate eIF2α) (Q9P2K8 whole entry): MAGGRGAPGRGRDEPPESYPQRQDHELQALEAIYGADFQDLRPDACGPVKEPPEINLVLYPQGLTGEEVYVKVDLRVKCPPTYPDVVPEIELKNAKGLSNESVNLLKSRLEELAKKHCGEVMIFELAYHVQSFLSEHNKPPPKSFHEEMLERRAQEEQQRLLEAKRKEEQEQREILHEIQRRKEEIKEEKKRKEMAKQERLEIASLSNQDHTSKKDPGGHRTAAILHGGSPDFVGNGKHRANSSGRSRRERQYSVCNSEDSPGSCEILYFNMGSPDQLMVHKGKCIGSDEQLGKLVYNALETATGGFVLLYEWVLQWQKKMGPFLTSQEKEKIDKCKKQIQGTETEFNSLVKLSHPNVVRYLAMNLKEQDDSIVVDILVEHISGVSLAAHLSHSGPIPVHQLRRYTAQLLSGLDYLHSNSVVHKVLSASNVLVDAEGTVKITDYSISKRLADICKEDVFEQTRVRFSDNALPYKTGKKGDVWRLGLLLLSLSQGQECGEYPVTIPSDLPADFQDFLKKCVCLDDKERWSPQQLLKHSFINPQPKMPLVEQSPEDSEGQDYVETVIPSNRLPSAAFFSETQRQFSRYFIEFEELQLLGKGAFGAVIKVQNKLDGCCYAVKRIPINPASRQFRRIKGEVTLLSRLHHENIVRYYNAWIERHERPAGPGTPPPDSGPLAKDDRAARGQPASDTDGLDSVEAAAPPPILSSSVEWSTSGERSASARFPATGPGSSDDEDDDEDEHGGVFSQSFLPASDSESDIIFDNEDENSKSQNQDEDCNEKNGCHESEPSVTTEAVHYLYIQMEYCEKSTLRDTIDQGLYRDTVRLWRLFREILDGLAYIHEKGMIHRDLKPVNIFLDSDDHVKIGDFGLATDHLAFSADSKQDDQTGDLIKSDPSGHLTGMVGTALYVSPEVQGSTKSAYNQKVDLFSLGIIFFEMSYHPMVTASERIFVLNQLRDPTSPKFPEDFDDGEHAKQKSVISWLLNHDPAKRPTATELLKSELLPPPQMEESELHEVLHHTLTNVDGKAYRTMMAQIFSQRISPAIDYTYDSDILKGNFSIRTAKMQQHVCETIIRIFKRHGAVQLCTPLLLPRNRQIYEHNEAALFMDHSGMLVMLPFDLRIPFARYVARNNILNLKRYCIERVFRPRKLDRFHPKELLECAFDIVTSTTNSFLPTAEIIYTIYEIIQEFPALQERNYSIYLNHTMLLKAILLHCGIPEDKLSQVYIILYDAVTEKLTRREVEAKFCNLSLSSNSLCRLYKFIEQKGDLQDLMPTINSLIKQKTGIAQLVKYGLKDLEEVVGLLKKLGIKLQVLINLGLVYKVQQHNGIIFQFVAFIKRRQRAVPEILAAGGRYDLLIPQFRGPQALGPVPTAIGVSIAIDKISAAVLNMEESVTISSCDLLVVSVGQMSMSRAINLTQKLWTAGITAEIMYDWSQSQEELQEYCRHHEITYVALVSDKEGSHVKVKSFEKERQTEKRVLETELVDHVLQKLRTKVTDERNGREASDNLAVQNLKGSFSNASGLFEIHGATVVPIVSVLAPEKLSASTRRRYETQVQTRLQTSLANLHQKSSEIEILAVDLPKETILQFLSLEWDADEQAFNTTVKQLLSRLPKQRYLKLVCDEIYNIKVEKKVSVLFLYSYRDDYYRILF
Protocol: Compounds can be screened for their ability to inhibit intracellular GCN2 using an AlphaScreen assay (Perkin Elmer) to detect phosphorylation of the GCN2 substrate eIF2α in borrelidin-treated cells. U2OS cells are plated at 5,000 cells per well in 384-well white polystyrene plates (Corning 3570) in McCoy's 5A media (GIBCO 26600-023) supplemented with 10% foetal bovine serum (SAFC 12103C), Penicillin/Streptomycin solution diluted 1:100 (Sigma P0781), and 2 mM L-glutamine (Sigma G7513), and allowed to adhere overnight at 37° C. in 5% CO2. Compounds are then added to the cell media from a final concentration of 40 μM in 4-fold serial dilutions. Borrelidin (FluoroChem M01440) is immediately added to the wells to a final concentration of 10 μM and the cells are incubated for 1 h at 37° C. in 5% CO2. After 1 h of treatment with borrelidin, the media is removed, and the cells are lysed with lysis buffer (TGR BioSceinces TGRLB) at ambient temperature.
An AlphaScreen SureFire P-eIF2α (Ser51) assay kit (Perkin Elmer TGREIF2S) was used to measure levels of eIF2α phosphorylated on Serine 51. Anti-phosphorylated eIF2α Ser51 antibody-linked acceptor beads (TGR BioScience 6760617) are added to the cell homogenate (diluted 1:250 into a mixture of activation (TGR BioScience TGRAB) and reaction buffer (TGR BioScience TGREIF2S) prepared immediately before use). The plate is then incubated for 2 h at ambient temperature in the dark. Anti-eIF2α antibody-linked donor beads (TGR BioScience 6760617) were then added (diluted 1:100 in dilution buffer (TGR BioScience TGRDB) prepared immediately before use). The plate is then incubated overnight at ambient temperature in the dark.
Plates are analyzed on an Alpha Technology-compatible PHERAstar FS plate reader (BMG Labtech Version 1.14) to quantify phosphorylated eIF2α Ser51 levels. The percentage inhibition of phosphorylated eIF2α is calculated by comparison to control wells stimulated with borrelidin alone.

Sequence of GCN2 kinase (Q9P2K8 whole entry): as above

SMILES | IC50 [1] [nM] | IC50 [2] [nM] | Ki [1] [nM]
CC1CN(c2ccnc(-c3cnc4ccc(Cl)cn34)n2)CC(c2cn[nH]c2)N1 (centres unmarked) [I-266, 6-chloro-3-(4-(3-methyl-5-(1H-pyrazol-4-yl)piperazin-1-yl)pyrimidin-2-yl)imidazo[1,2-a]pyridine] | < 10 | < 500 | 
CC(C)(C)OC(=O)N1CC2(C1)OCCN(c1ccnc(-c3cnc4ccc(C(F)(F)F)cn34)n1)C2(C)C [I-388, tert-butyl 9,9-dimethyl-8-(2-(6-(trifluoromethyl)imidazo[1,2-a]pyridin-3-yl)pyrimidin-4-yl)-5-oxa-2,8-diazaspiro[3.5]nonane-2-carboxylate] | 100 to 1000 | > 5000 | 
CS(=O)(=O)C1CC(N2CCN(c3ccnc(-c4cnc5ccc(C(F)(F)F)cn45)n3)C[C@H]2c2cn[nH]c2)C1 (stereo partly drawn) [I-490, 3-{4-[(R)-4-(3-Methanesulfonyl-cyclobutyl)-3-(1H-pyrazol-4-yl)-piperazin-1-yl]-pyrimidin-2-yl}-6-trifluoromethyl-imidazo[1,2-a]pyridine] | < 10 | < 500 | 
Cc1[nH]ncc1[C@@H]1[C@H](C)N(c2ccnc(-c3cnc4ccc(C(F)(F)F)cn34)n2)CCN1C1COC1 [I-365] | 100 to 1000 | 500 to 5000 | 
NC(=O)C1CN(c2ccnc(-c3cnc4ccc(C(F)(F)F)cn34)n2)CCN1CCC(F)(F)F (centres unmarked) [I-245, 4-(2-(6-(trifluoromethyl)imidazo[1,2-a]pyridin-3-yl)pyrimidin-4-yl)-1-(3,3,3-trifluoropropyl)piperazine-2-carboxamide] | 10 to 100 | 500 to 5000 | 
Cc1[nH]ncc1[C@H]1C[C@H](O)CN(c2ccnc(-c3cnc4ccc(C(F)(F)F)cn34)n2)C1 [I-307, (3 S, 5R)-5-(5-methyl-1H-pyrazol-4-yl)-1-(2-(6-(trifluoromethyl)imidazo[1,2-a]pyridin-3-yl)pyrimidin-4-yl)piperidin-3-ol] | 10 to 100 | 500 to 5000 | 
C[C@@H]1C[C@H](N=S(C)(C)=O)CN(c2ccnc(-c3cnc4ccc(Oc5ccccc5)cn34)n2)C1 [I-325, dimethyl({[(3 S,5R)-5-methyl-1-(2-{6-phenoxyimidazo[1,2-a]pyridin-3-yl}pyrimidin-4-yl)piperidin-3-yl]imino})-λ6-sulfanone] | 100 to 1000 | 500 to 5000 | 
FC(F)(F)c1ccc2ncc(-c3nccc(N4CCOC(c5cn[nH]c5)C4)n3)n2c1 (centres unmarked) [I-45, 2-(1H-Pyrazol-4-yl)-4-(2-(6-(trifluoromethyl)imidazo[1,2-a]pyridin-3-yl)pyrimidin-4-yl)morpholine] |  | < 500 | < 10
O=C(CCn1ccnc1)N1CCN(c2ccnc(-c3cnc4ccc(C(F)(F)F)cn34)n2)CC1c1cn[nH]c1 (centres unmarked) [I-422, 1-(2-(1H-pyrazol-4-yl)-4-(2-(6-(trifluoromethyl)imidazo[1,2-a]pyridin-3-yl)pyrimidin-4-yl)piperazin-1-yl)-3-(1H-imidazol-1-yl)propan-1-one] | 10 to 100 | > 5000 | 
CC(C)(C)OC(=O)N1CC2(CCCN(c3ccnc(-c4cnc5ccc(Cl)cn45)n3)C2)C1 [I-285, tert-butyl 6-(2-(6-chloroimidazo[1,2-a]pyridin-3-yl)pyrimidin-4-yl)-2,6-diazaspiro[3.5]nonane-2-carboxylate] | 100 to 1000 | 500 to 5000 | 
FC(F)c1ccc2ncc(-c3ccnc(N4CCOC(c5cn[nH]c5)C4)n3)n2c1 (centres unmarked) [I-18, 4-[4-[6-(Difluoromethyl)imidazo[1,2-a]pyridin-3-yl]pyrimidin-2-yl]-2-(1H-pyrazol-4-yl)morpholine] |  | < 500 | < 10
CC1C(CNS(C)(=O)=O)N(C2COC2)CCN1c1ccnc(-c2cnc3ccc(C(F)F)cn23)n1 (centres unmarked) [I-530, N-((4-(2-(6-(difluoromethyl)imidazo[1,2-a]pyridin-3-yl)pyrimidin-4-yl)-3-methyl-1-(oxetan-3-yl)piperazin-2-yl)methyl)methanesulfonamide] | 10 to 100 | 500 to 5000 | 
Cc1[nH]ncc1[C@@H]1[C@@H](C)N(c2ccnc(-c3cnc4ccc(C(F)(F)F)cn34)n2)CCN1C1COC1 [I-368] | 100 to 1000 | 500 to 5000 | 
O=C(C1CC1)N1CCN(c2ccnc(-c3cnc4ccc(C(F)(F)F)cn34)n2)CC1c1cn[nH]c1 (centres unmarked) [I-397, (2-(1H-pyrazol-4-yl)-4-(2-(6-(trifluoromethyl)imidazo[1,2-a]pyridin-3-yl)pyrimidin-4-yl)piperazin-1-yl)(cyclopropyl)methanone] | 10 to 100 | 500 to 5000 | 
C[C@H]1C[C@@H](N=S(C)(C)=O)CN(c2nccc(-c3cnc4ccc(Cl)cn34)n2)C1 (stereo in doubt) [I-159, (((3R,5S)-1-(4-(6-chloroimidazo[1,2-a]pyridin-3-yl)pyrimidin-2-yl)-5-methylpiperidin-3-yl)imino)dimethyl-λ6-sulfanone] | 10 to 100 | < 500 | 
Cc1oncc1[C@H]1CN(c2ccnc(-c3cnc4ccc(C(F)(F)F)cn34)n2)C[C@H](C)O1 [I-345, (2S,6S)-2-methyl-6-(5-methylisoxazol-4-yl)-4-(2-(6-(trifluoromethyl)imidazo[1,2-a]pyridin-3-yl)pyrimidin-4-yl)morpholine] | 100 to 1000 | 500 to 5000 | 
Clc1ccc2ncc(-c3nccc(N4CCCC(c5ccon5)C4)n3)n2c1 (centres unmarked) [I-66, 6-Chloro-3-[4-(3-isoxazol-3-yl-piperidin-1-yl)-pyrimidin-2-yl]-imidazo[1,2-a]pyridine] |  | 500 to 5000 | 10 to 100
CC1(C)CN(c2ccnc(-c3cnc4ccc(C(F)F)cn34)n2)CC2(CN(S(C)(=O)=O)C2)O1 [I-396, 8-(2-(6-(difluoromethyl)imidazo[1,2-a]pyridin-3-yl)pyrimidin-4-yl)-6,6-dimethyl-2-(methylsulfonyl)-5-oxa-2,8-diazaspiro[3.5]nonane] | 10 to 100 | > 5000 | 
O=C(c1c[nH]cn1)N1CCN(c2ccnc(-c3cnc4ccc(C(F)(F)F)cn34)n2)CC1c1cn[nH]c1 (centres unmarked) [I-445, (2-(1H-pyrazol-4-yl)-4-(2-(6-(trifluoromethyl)imidazo[1,2-a]pyridin-3-yl)pyrimidin-4-yl)piperazin-1-yl)(1H-imidazol-4-yl)methanone] | 10 to 100 | 500 to 5000 | 
CS(=N)(=O)C[C@H]1CCCN(c2ccnc(-c3cnc4ccc(C(F)(F)F)cn34)n2)C1 (some centres unmarked) [I-4, 3-(4-(3-((S-Methylsulfonimidoyl)methyl)piperidin-1-yl)pyrimidin-2-yl)-6-(trifluoromethyl)imidazo[1,2-a]pyridine] |  | 500 to 5000 | 10 to 100
N#C[C@@H]1CN(c2ccnc(-c3cnc4ccc(C(F)(F)F)cn34)n2)CCO1 [I-232, (S)-4-(2-(6-(trifluoromethyl)imidazo[1,2-a]pyridin-3-yl)pyrimidin-4-yl)morpholine-2-carbonitrile] | 100 to 1000 | 500 to 5000 | 
C[C@@H]1C[C@H](N=S(C)(C)=O)CN(c2ccnc(-c3cnc4cc(Cl)c(Cl)cn34)n2)C1 [I-269, (((3 S,5R)-1-(2-(6,7-dichloroimidazo[1,2-a]pyridin-3-yl)pyrimidin-4-yl)-5-methylpiperidin-3-yl)imino)dimethyl-λ6-sulfanone] | 10 to 100 | 500 to 5000 | 
CS(=O)(=O)c1ccc2ncc(-c3nccc(N4CCCC(c5cn[nH]c5)C4)n3)n2c1 (centres unmarked) [I-313, 3-(4-(3-(1H-pyrazol-4-yl)piperidin-1-yl)pyrimidin-2-yl)-6-(methylsulfonyl)imidazo[1,2-a]pyridine] | 10 to 100 | 500 to 5000 | 
Cc1noc([C@H]2CN(c3ccnc(-c4cnc5ccc(C(F)(F)F)cn45)n3)C[C@@H](C)O2)n1 (stereo in doubt) [I-90, 2-methyl-6-(3-methyl-1,2,4-oxadiazol-5-yl)-4-{2-[6-(trifluoromethyl)imidazo[1,2-a]pyridin-3-yl]pyrimidin-4-yl}morpholine] |  | < 500 | < 10
CC1(C)C[C@@H]1CN1CCN(c2ccnc(-c3cnc4ccc(C(F)(F)F)cn34)n2)C[C@@H]1c1cn[nH]c1 [I-527, 3-(4-((S)-4-(((S)-2,2-dimethylcyclopropyl)methyl)-3-(1H-pyrazol-4-yl)piperazin-1-yl)pyrimidin-2-yl)-6-(trifluoromethyl)imidazo[1,2-a]pyridine] | 10 to 100 | 500 to 5000 | 

From US10793563B2, “GCN2 inhibitors and uses thereof” (Merck Patent GmbH, priority 2018, dated 2020)
